Reference: ChEMBL document CHEMBL6153133, “Discovery of Diphenyl Ether Derivatives as Novel BKCa Channel Activators: Structure-Activity Relationship, Cryo-EM Complex Structures, and In Vivo Animal Studies” (J Med Chem, 2025)
Each block holds one compound with its values, some of them ahead of it. The source made the active and inactive calls. The rule behind the calls is not given here.

Key:
[1] = test system: Calcium-activated potassium channel subunit alpha-1 (Homo sapiens), Q12791 [UNDEFINED MUTATION]; experiment: (§1) Activation of hyperactive human BKca channel G803D/N806K mutant transfected in human AD-293 cells assessed as maximum relative fluorescence value at 5 uM preincubated for 15 mins followed by Tl+ stimulus buffer addition and measured after 80 sec by Flexstation3 multimode microplate reader analysis relative to control; assay type: cell-based; conditions: time 980.0 sec
Calcium-activated potassium channel subunit alpha-1 (Homo sapiens), Q12791 [UNDEFINED MUTATION], sequence (Q12791 whole entry, looked up, stated change not applied): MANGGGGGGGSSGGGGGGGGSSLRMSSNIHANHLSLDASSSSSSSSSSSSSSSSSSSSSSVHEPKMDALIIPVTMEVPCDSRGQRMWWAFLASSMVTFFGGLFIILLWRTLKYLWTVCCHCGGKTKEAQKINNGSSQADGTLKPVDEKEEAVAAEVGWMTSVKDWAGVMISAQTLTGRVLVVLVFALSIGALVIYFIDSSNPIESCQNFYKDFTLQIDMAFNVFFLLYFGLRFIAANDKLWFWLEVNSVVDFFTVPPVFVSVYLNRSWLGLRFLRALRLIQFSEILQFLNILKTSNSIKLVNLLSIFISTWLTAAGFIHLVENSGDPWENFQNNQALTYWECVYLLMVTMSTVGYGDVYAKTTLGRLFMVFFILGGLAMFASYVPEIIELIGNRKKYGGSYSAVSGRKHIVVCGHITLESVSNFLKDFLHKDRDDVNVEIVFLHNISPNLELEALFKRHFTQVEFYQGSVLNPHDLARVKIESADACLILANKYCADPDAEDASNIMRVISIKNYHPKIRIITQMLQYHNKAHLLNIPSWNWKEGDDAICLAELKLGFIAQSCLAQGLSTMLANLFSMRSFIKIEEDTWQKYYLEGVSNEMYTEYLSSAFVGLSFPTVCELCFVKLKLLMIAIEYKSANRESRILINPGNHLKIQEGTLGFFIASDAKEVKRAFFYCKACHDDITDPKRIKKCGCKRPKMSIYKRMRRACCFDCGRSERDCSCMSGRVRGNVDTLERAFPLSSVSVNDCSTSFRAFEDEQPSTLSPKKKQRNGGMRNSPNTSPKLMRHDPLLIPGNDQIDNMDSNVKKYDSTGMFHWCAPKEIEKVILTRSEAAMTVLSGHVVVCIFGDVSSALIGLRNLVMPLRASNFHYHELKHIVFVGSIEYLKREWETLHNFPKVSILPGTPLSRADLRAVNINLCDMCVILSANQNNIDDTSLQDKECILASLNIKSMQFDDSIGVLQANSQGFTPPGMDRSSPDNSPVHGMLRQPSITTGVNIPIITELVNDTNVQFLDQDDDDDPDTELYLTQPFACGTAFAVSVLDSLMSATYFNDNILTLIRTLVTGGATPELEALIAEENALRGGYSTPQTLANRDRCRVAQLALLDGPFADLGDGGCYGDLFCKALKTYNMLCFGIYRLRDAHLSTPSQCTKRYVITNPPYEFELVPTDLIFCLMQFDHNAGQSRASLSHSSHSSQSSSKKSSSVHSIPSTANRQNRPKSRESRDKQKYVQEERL

[2] = test system: Calcium-activated potassium channel subunit alpha-1 (Homo sapiens), Q12791 [UNDEFINED MUTATION]; experiment: as §1, with “at 1” for “at 5”; assay type: cell-based; conditions: time 980.0 sec
[3] = Cmax in male Sprague-Dawley rat at 10 mg/kg, po by LC-MS/MS analysis; assay type: ADME, organism-based; conditions: in vivo
[4] = Tmax in male Sprague-Dawley rat at 10 mg/kg, po by LC-MS/MS analysis; assay type: ADME, organism-based; conditions: in vivo
[5] = Half-life in male Sprague-Dawley rat at 10 mg/kg, po by LC-MS/MS analysis; assay type: ADME, organism-based; conditions: in vivo
[6] = AUClast in male Sprague-Dawley rat at 10 mg/kg, po by LC-MS/MS analysis; assay type: ADME, organism-based; conditions: in vivo
[7] = Toxicity in male spontaneous hypertensive rat model at 100 mg/kg, po; assay type: organism-based; conditions: in vivo
Rattus norvegicus [8] = experiment: Reversal of urinary incontinence in male spontaneous hypertensive rat model assessed as decrease in urine frequency at 100 mg/kg, po measured after 3 hrs relative to control; assay type: functional; design: scale not given: the % may be the effect or the level left
Rattus norvegicus [9] = experiment: Reversal of urinary incontinence in male spontaneous hypertensive rat model assessed as decrease in urine volume at 100 mg/kg, po measured after 3 hrs relative to control; assay type: functional; design: scale not given: the % may be the effect or the level left
[10] = target: Calcium-activated potassium channel subunit alpha-1 (Homo sapiens, UniProt Q12791, G803D/N806K); experiment: (§2) Activation of hyperactive human BKca channel G803D/N806K mutant transfected in human AD-293 cells incubated for 15 mins by Flexstation3 multimode microplate reader analysis; assay type: cell-based
Calcium-activated potassium channel subunit alpha-1, sequence (Q12791 whole entry, looked up, stated change not applied): as above

[11] = Activation of rat BKca channel extracted from Xenopus laevis Oocytes by patch-clamp electrophysiology recordings; assay type: cell-based; conditions: Oocyte
[12] = Metabolic stability in rat liver microsomes assessed as parent compound remaining at 1 uM preincubated for 5 mins followed by NADPH addition and measured after 30 mins by LC-MS/MS analysis; assay type: ADME, Microsome; conditions: read-out: Stability
[13] = Metabolic stability in human liver microsomes assessed as parent compound remaining at 1 uM preincubated for 5 mins followed by NADPH addition and measured after 30 mins by LC-MS/MS analysis; assay type: ADME, Microsome; conditions: read-out: Stability
[14] = Permeability of compound at pH 7.4 measured after 4 hrs by GIT-PAMPA assay; assay type: ADME; conditions: read-out: permeability
[15] = test system: Calcium-activated potassium channel subunit alpha-1 (Homo sapiens), Q12791 [UNDEFINED MUTATION]; experiment: as §2; assay type: cell-based
Oocyte [16] = experiment: Activation of wildtype rat BKca channel extracted from Xenopus laevis Oocytes assessed as negative shift in V1/2 at 5 uM at -100 mV holding potential by patch-clamp electrophysiology recordings; assay type: cell-based; conditions: filed as opener
Oocyte [17] = experiment: Activation of […] rat BKca channel W22A mutant extracted from Xenopus laevis Oocytes assessed as negative shift in V1/2 at 5 uM at -100 mV holding potential by patch-clamp electrophysiology recordings; assay type: cell-based; conditions: filed as opener
Oocyte [18] = experiment: Activation of […] rat BKca channel S259A mutant extracted from Xenopus laevis Oocytes assessed as negative shift in V1/2 at 5 uM at -100 mV holding potential by patch-clamp electrophysiology recordings; assay type: cell-based; conditions: filed as opener
Oocyte [19] = experiment: Activation of […] rat BKca channel F266A mutant extracted from Xenopus laevis Oocytes assessed as negative shift in V1/2 at 5 uM at -100 mV holding potential by patch-clamp electrophysiology recordings; assay type: cell-based; conditions: filed as opener
[20] = Metabolic stability in rat liver microsomes assessed as parent compound remaining at 1 uM preincubated for 15 mins followed by UDPGA addition and measured after 60 mins by LC-MS/MS analysis; assay type: ADME, Microsome; conditions: time 75 min, read-out: Stability
[21] = Metabolic stability in human liver microsomes assessed as parent compound remaining at 1 uM preincubated for 15 mins followed by UDPGA addition and measured after 60 mins by LC-MS/MS analysis; assay type: ADME, Microsome; conditions: time 75 min, read-out: Stability
[22] = test system: Calcium-activated potassium channel subunit alpha-1 (Homo sapiens), Q12791 [UNDEFINED MUTATION]; experiment: as §1, with “assessed as fold change in maximum relative” for “assessed as maximum relative”, “relative to 4-chloro-7-(trifluoromethyl)-10H-benzofuro[3,2-b]indole-1-carboxylic acid” for “relative to control”; assay type: cell-based; conditions: filed as opener, time 980.0 sec
Oocyte [23] = experiment: Activation of rat BKca channel extracted from Xenopus laevis Oocytes assessed as left shift in G-V curve at 5 uM by patch-clamp electrophysiology recordings; assay type: cell-based; conditions: filed as opener
[24] = test system: Calcium-activated potassium channel subunit alpha-1 (Homo sapiens), Q12791 [UNDEFINED MUTATION]; experiment: as §1, with “assessed as fold change in maximum relative” for “assessed as maximum relative”, “reader analysis” for “reader analysis relative to control”; assay type: cell-based; conditions: filed as opener, time 980.0 sec
[25] = test system: Calcium-activated potassium channel subunit alpha-1 (Homo sapiens), Q12791 [UNDEFINED MUTATION]; experiment: Activation of hyperactive human BKca channel G803D/N806K mutant transfected in human AD-293 cells at >2 uM preincubated for 15 mins followed by Tl+ stimulus buffer addition and measured after 80 sec in presence of paxilline by Flexstation3 multimode microplate reader analysis; assay type: cell-based; conditions: filed as opener, time 980.0 sec
Rattus norvegicus [26] = experiment: Reversal of urinary incontinence in male spontaneous hypertensive rat model assessed as decrease in urine frequency at 10 to 50 mg/kg, po measured after 3 hrs; assay type: functional, organism-based; conditions: dose 10-50 mg/kg

- Activity ([1]; filed as opener): 75.2%
- Activity [2]: 5.3%
SMILES: Nc1ccc(Oc2c(F)c(F)c(C(F)(F)F)c(F)c2F)c(Cl)c1

- Activity [1]: 19.3%
SMILES: O=[N+]([O-])c1ccc(Oc2c(F)c(F)c(C(F)(F)F)c(F)c2F)c(O)c1

- Activity [1]: 37.9%
SMILES: Nc1ccc(Oc2c(F)c(F)c(C(F)(F)F)c(F)c2F)c(CO)c1

- Activity [1]: 0.1%
SMILES: O=[N+]([O-])c1cc(O)ccc1Oc1c(F)c(F)c(C(F)(F)F)c(F)c1F

- Activity [1]: 10.2%
SMILES: CN(C)c1ccc(Oc2c(F)c(F)c(C(F)(F)F)c(F)c2F)c(O)c1

- Activity ([1]; filed as opener): 86.8%
- Activity [2]: 18.1%
- remaining at 0.5 h, 1 µM [12]: 18.6%
- remaining at 0.5 h, 1 µM [13]: 7.4%
SMILES: Nc1ccc(Oc2c(F)c(F)c(C(F)(F)F)c(F)c2F)cc1

- Activity [15]: inactive
SMILES: Oc1c(F)c(F)c(Cl)c(F)c1F

- Activity [1]: 4%
SMILES: Oc1ccc(Oc2c(F)c(F)c(Cl)c(F)c2F)cc1O

- Activity [15]: inactive
SMILES: Nc1ccc(Oc2c(F)c(F)c(C(F)(F)F)c(F)c2F)cn1

- Activity [1]: 33%
SMILES: Nc1ccc(Oc2c(F)c(F)c(C(F)(F)F)c(F)c2F)c(OC(F)(F)F)c1

The remaining lines, values behind:

SMILES: NCCCCCNc1ccc(Oc2c(F)c(F)c(C(F)(F)F)c(F)c2F)c(O)c1
- Activity ([1]; filed as opener): 53.4%

SMILES: Cl.Cl.Oc1cc(NCCCCN2CCOCC2)ccc1Oc1c(F)c(F)c(C(F)(F)F)c(F)c1F
- Cmax [3]: 72.1 ng/mL
- Tmax [4]: 0.7 h
- half-life [5]: 3.7 h
- AUC(0-t) [6]: 223 ng·h/mL
- Activity [7]: Non-toxic
- Activity (Rattus norvegicus [8]): 43.2%
- Activity (Rattus norvegicus [9]): 49.2%

SMILES: Oc1cc(NCCCCCN2CCOCC2)ccc1Oc1c(F)c(F)c(C(F)(F)F)c(F)c1F [listing 1 of 2 here]
- EC50 [10]: 2820 nM
- EC50 [11]: 970 nM
- remaining at 0.5 h, 1 µM [12]: 30.7%
- remaining at 0.5 h, 1 µM [13]: 96.9%
- Papp at 4 h [14]: 56.6 ×10⁻⁶ cm/s

SMILES: COc1cc(O)ccc1Oc1c(F)c(F)c(Cl)c(F)c1F
- Activity [15]: inactive

SMILES: CCCNc1ccc(Oc2c(F)c(F)c(C(F)(F)F)c(F)c2F)c(O)c1
- Activity [1]: 28.1%

SMILES: N#Cc1cc(N)ccc1Oc1c(F)c(F)c(C(F)(F)F)c(F)c1F
- Activity [1]: 8.1%

SMILES: Oc1cc(O)cc(Oc2c(F)c(F)c(Cl)c(F)c2F)c1
- Activity [1]: 11.8%

SMILES: Oc1ccccc1Oc1c(F)c(F)c(Cl)c(F)c1F
- Activity [1]: -2.7%

SMILES: Nc1ccc(Oc2c(F)c(F)c(C(F)(F)F)c(F)c2F)c(F)c1
- Activity ([1]; filed as opener): 83%
- EC50 [10]: 1370 nM
- Activity [2]: 17.9%
- remaining at 0.5 h, 1 µM [12]: 12.7%
- remaining at 0.5 h, 1 µM [13]: 14.8%

SMILES: Oc1cc(NCCCCCN2CCOCC2)ccc1Oc1c(F)c(F)c(C(F)(F)F)c(F)c1F [listing 2 of 2 here]
- Activity ([1]; filed as opener): 81.3%
- Activity (Oocyte [16]): 86.2 mV
- Activity (Oocyte [17]): 24 mV
- Activity (Oocyte [18]): 23.5 mV
- Activity (Oocyte [19]): 37.9 mV

SMILES: COc1ccc(Oc2c(F)c(F)c(Cl)c(F)c2F)c(OC)c1
- Activity [15]: inactive

SMILES: COc1cc(N)ccc1Oc1c(F)c(F)c(C(F)(F)F)c(F)c1F
- EC50 [10]: 1210 nM
- remaining at 0.5 h, 1 µM [12]: 7.2%
- remaining at 0.5 h, 1 µM [13]: 87.1%
- remaining at 1 h, 1 µM [20]: 88.8%
- remaining at 1 h, 1 µM [21]: 30%
- Papp at 4 h [14]: 73.6 ×10⁻⁶ cm/s

SMILES: Nc1cc(O)ccc1Oc1c(F)c(F)c(C(F)(F)F)c(F)c1F
- Activity [1]: 4.7%

SMILES: Oc1ccc(Oc2c(F)c(F)c(Cl)c(F)c2F)c(O)c1
- Activity ([1]; filed as opener): 100%
- EC50 [10]: 1580 nM
- fold change (FC) [22]: 2.5
- Activity (Oocyte [23]): Active
- fold change (FC) [24]: 9.7
- Activity ([2]; filed as opener): 41.6%
- remaining at 0.5 h, 1 µM [12]: 35.9%
- remaining at 0.5 h, 1 µM [13]: 83.6%

SMILES: Oc1ccc(O)c(O)c1
- Activity [15]: inactive

SMILES: Nc1ccc(Oc2c(F)c(F)c(C(F)(F)F)c(F)c2F)c(O)c1
- Activity ([1]; filed as opener): 100%
- Activity ([2]; filed as opener): 100%
- Activity [25]: Active
- Activity (Rattus norvegicus [26]): inactive

SMILES: Oc1ccc(Oc2c(F)c(F)c(C(F)(F)F)c(F)c2F)c(O)c1
- Activity ([1]; filed as opener): 102%
- EC50 [10]: 680 nM
- Activity ([2]; filed as opener): 81.3%

SMILES: NCc1ccc(Oc2c(F)c(F)c(C(F)(F)F)c(F)c2F)c(O)c1
- Activity [15]: inactive
